Read-outs that look alike come from different tables or passages of the source.
What was measured:
NCI-H358 (K-Ras G12C) = assay: CellTiter-Glo cell viability assay, NCI-H358; assay type: cell-based, human; conditions: Homo sapiens, NCI-H358, 120 h, class symbols
Procedure, shortened: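 Steps: compound dispensed into wells holding cells; incubation to day 5; ~30 min room-temperature equilibration; luminescence read; sample signal divided by mean DMSO signal, times 100; four-parameter logistic curve fit.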

K-Ras G12C = K-Ras G12C (Homo sapiens (Human), UniProt P01116+P62937, G12C); assay: Ras-Raf (BRAF RBD) disruption / FRET / MOA assay, KRAS G12C; assay type: biochemical; conditions: KRAS G12C; Ras-Raf disruption/FRET/MOA assay; read-out: IC50* KRAS G12C FRET data
Procedure, shortened: (§1)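 Compounds, top final concentration 30 μM in 10-point 3-fold series, incubated 3 hours at 25° C with nucleotide-loaded Ras, cyclophilin A and BRAF RBD.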

K-Ras G13C = K-Ras G13C (Homo sapiens (Human), UniProt P01116+P62937, G13C); assay: Ras-Raf (BRAF RBD) disruption / FRET / MOA assay, KRAS G13C; assay type: biochemical; conditions: KRAS G13C; Ras-Raf disruption/FRET/MOA assay; read-out: IC50* KRAS G13C FRET data
Procedure, shortened: as §1

KRAS G12S = KRAS G12S (Homo sapiens (Human), UniProt P01116+P62937, G12S); assay: Ras-Raf (BRAF RBD) disruption / FRET / MOA assay, KRAS G12S; assay type: biochemical; conditions: Ras-Raf disruption/FRET/MOA assay; class symbols; read-out: KRAS G12S FRET data IC50
Procedure, shortened: as §1

KRAS G12D = KRAS G12D (Homo sapiens (Human), UniProt P01116+P62937, G12D); assay: Ras-Raf (BRAF RBD) disruption / FRET / MOA assay, KRAS G12D; assay type: biochemical; conditions: Ras-Raf disruption/FRET/MOA assay; class symbols; read-out: KRAS G12D FRET data IC50
Procedure, shortened: as §1

KRAS G12V = KRAS G12V (Homo sapiens (Human), UniProt P01116+P62937, G12V); assay: Ras-Raf (BRAF RBD) disruption / FRET / MOA assay, KRAS G12V; assay type: biochemical; conditions: read-out: IC50* KRAS G12V FRET data
Procedure, shortened: as §1

KRAS WT = KRAS WT (Homo sapiens (Human), UniProt P01116+P62937); assay: Ras-Raf (BRAF RBD) disruption / FRET / MOA assay, KRAS WT; assay type: biochemical; conditions: read-out: IC50* KRAS WT FRET data
Procedure, shortened: as §1

KRAS Q61H = KRAS Q61H (Homo sapiens (Human), UniProt P01116+P62937, Q61H); assay: Ras-Raf (BRAF RBD) disruption / FRET / MOA assay, KRAS Q61H; assay type: biochemical; conditions: Ras-Raf disruption/FRET/MOA assay; class symbols; read-out: KRAS Q61H FRET data IC50
Procedure, shortened: (§2)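 TR-FRET disruption of nucleotide-loaded Ras binding to BRAF RBD via compound-driven ternary complex with cyclophilin A. Compound as 10-point 3-fold series from 30 μM final, 3 h at 25° C, then anti-His Eu-W1024 (10 nM) and anti-GST allophycocyanin (50 nM) for 1.5 h. IC50 from decreased FRET ratio versus DMSO.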

NRAS G12C = NRAS G12C (Homo sapiens (Human), UniProt P01111+P62937, G12C); assay: Ras-Raf (BRAF RBD) disruption / FRET / MOA assay, NRAS G12C; assay type: biochemical; conditions: read-out: IC50* NRAS G12C FRET data
Procedure, shortened: as §1

NRAS Q61R = NRAS Q61R (Homo sapiens (Human), UniProt P01111+P62937, Q61R); assay: Ras-Raf (BRAF RBD) disruption / FRET / MOA assay, NRAS Q61R; assay type: biochemical; conditions: NRAS Q61R; Ras-Raf disruption/FRET/MOA assay; read-out: IC50* NRAS Q61R FRET data
Procedure, shortened: as §2

NRAS Q61K = NRAS Q61K (Homo sapiens (Human), UniProt P01111+P62937, Q61K); assay: Ras-Raf (BRAF RBD) disruption / FRET / MOA assay, NRAS Q61K; assay type: biochemical; conditions: NRAS Q61K; Ras-Raf disruption/FRET/MOA assay; read-out: IC50* NRAS Q61K FRET data
Procedure, shortened: as §2

NRAS WT = NRAS WT (Homo sapiens (Human), UniProt P01111+P62937); assay: Ras-Raf (BRAF RBD) disruption / FRET / MOA assay, NRAS WT; assay type: biochemical; conditions: read-out: IC50* NRAS WT FRET data
Procedure, shortened: as §2

[1] = NCI-H358, 5-day treatment, read-out: Additional H358 Cell Viability assay data (K-Ras G12C, IC50)

Sequence of NRAS Q61R (P01111 whole entry Q61R): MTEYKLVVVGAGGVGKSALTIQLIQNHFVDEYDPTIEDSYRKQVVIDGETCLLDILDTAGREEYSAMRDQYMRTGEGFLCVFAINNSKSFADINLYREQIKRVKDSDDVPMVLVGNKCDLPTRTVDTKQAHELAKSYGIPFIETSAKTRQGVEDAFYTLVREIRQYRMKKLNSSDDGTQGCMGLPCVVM
Sequence of NRAS Q61R (P62937 whole entry): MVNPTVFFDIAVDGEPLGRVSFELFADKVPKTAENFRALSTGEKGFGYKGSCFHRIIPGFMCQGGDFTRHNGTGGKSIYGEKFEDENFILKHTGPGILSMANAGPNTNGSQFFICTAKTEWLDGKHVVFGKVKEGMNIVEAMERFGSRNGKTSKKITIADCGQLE
Sequence of KRAS G12D (P01116-2 other isoform, or with tags, fused parts or gaps G12D): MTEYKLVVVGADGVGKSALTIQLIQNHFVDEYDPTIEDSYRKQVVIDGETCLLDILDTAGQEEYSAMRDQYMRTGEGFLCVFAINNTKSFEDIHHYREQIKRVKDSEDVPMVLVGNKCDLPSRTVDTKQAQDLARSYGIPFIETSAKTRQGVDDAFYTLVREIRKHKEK
Sequence of KRAS G12D (P62937 whole entry): as the sequence (P62937 whole entry) above
Sequence of KRAS Q61H (P01116-2 other isoform, or with tags, fused parts or gaps Q61H): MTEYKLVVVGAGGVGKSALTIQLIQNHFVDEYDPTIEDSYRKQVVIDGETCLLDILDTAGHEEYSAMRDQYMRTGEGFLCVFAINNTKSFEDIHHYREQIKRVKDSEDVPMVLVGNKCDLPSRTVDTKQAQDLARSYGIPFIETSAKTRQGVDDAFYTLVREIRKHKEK
Sequence of KRAS Q61H (P62937 whole entry): as the sequence (P62937 whole entry) above
Sequence of NRAS G12C (P01111 whole entry G12C): as the sequence (P01111 whole entry Q61R) above, with G12C, R61Q counted along it
Sequence of NRAS G12C (P62937 whole entry): as the sequence (P62937 whole entry) above
Sequence of KRAS G12V (P01116-2 other isoform, or with tags, fused parts or gaps G12V): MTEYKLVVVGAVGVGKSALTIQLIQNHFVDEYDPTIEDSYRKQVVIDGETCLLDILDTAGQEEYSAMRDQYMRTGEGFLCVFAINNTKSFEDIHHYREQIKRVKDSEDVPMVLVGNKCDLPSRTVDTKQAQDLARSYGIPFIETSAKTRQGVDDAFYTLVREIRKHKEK
Sequence of KRAS G12V (P62937 whole entry): as the sequence (P62937 whole entry) above
Sequence of KRAS G12S (P01116-2 other isoform, or with tags, fused parts or gaps G12S): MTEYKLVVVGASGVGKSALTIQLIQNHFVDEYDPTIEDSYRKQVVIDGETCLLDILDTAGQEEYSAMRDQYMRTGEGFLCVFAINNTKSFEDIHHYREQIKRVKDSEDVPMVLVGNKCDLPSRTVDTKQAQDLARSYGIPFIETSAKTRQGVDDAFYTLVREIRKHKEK
Sequence of KRAS G12S (P62937 whole entry): as the sequence (P62937 whole entry) above
Sequence of K-Ras G12C (P01116-2 other isoform, or with tags, fused parts or gaps G12C): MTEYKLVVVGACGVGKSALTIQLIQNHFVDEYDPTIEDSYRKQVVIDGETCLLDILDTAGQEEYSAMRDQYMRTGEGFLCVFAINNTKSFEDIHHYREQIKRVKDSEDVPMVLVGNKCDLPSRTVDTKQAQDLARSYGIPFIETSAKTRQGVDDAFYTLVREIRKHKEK
Sequence of K-Ras G12C (P62937 whole entry): as the sequence (P62937 whole entry) above
Sequence of NRAS WT (P01111 whole entry): as the sequence (P01111 whole entry Q61R) above, with R61Q counted along it
Sequence of NRAS WT (P62937 whole entry): as the sequence (P62937 whole entry) above
Sequence of K-Ras G13C (P01116-2 other isoform, or with tags, fused parts or gaps G13C): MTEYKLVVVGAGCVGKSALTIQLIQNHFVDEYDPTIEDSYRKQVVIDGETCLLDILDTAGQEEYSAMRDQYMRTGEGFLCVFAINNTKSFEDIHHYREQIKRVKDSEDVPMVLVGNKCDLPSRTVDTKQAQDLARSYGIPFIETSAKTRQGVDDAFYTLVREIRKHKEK
Sequence of K-Ras G13C (P62937 whole entry): as the sequence (P62937 whole entry) above
Sequence of NRAS Q61K (P01111 whole entry Q61K): as the sequence (P01111 whole entry Q61R) above, with R61K counted along it
Sequence of NRAS Q61K (P62937 whole entry): as the sequence (P62937 whole entry) above
Sequence of KRAS WT (P01116-2 other isoform, or with tags, fused parts or gaps): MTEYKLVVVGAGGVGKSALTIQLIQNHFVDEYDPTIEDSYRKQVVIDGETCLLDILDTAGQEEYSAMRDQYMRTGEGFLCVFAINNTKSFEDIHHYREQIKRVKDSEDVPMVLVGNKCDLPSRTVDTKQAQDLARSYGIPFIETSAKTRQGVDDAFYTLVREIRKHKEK
Sequence of KRAS WT (P62937 whole entry): as the sequence (P62937 whole entry) above

Structure (SMILES) | IC50 (NCI-H358 (K-Ras G12C); [1]) [µM] | IC50 (K-Ras G12C) [nM] | IC50 (K-Ras G13C) [nM] | IC50 (KRAS G12S) [nM] | IC50 (KRAS G12D) [nM] | IC50 (KRAS G12V) [nM] | IC50 (KRAS WT) [nM] | IC50 (KRAS Q61H) [nM] | IC50 (NRAS G12C) [nM] | IC50 (NRAS Q61R) [nM] | IC50 (NRAS Q61K) [nM] | IC50 (NRAS WT) [nM] | IC50 (NCI-H358 (K-Ras G12C); read-out: Additional H358 Cell Viability assay data (K-Ras G12C, IC50, uM), NCI-H358, 5-day treatment) [µM]
C=CC(=O)N1CCO[C@H]2CN(C(=O)N(C)[C@H](C(=O)N[C@H]3Cc4nc(cs4)-c4ccc5c(c4)c(c(-c4cccnc4[C@H](C)OC)n5CC)CC(C)(C)COC(=O)[C@@H]4CCCN(N4)C3=O)C(C)C)C[C@@H]21 (atropisomer, axis not shown) [Example A544] | < 0.01 | < 10 | 100 to 1000 | 100 to 1000 | 1000 to 10000 | 100 to 1000 | 100 to 1000 | 10 to 100 | < 10 | 100 to 1000 | 10 to 100 | 100 to 1000 | –
C=CC(=O)N1CCOC2(CCN(C(=O)N(C)[C@H](C(=O)N[C@H]3Cc4nsc(n4)-c4ccc5c(c4)c(c(-c4cccnc4[C@H](C)OC)n5CC)CC(C)(C)COC(=O)[C@@H]4CCCN(N4)C3=O)C(C)C)CC2)C1 (atropisomer, axis not shown) [Example A545] | 0.01 to 0.1 | 10 to 100 | 10 to 100 | 100 to 1000 | 1000 to 10000 | 100 to 1000 | 100 to 1000 | 10 to 100 | 10 to 100 | 100 to 1000 | 10 to 100 | 100 to 1000 | –
C=CC(=O)N1CC[C@@H]2[C@H]1CN2C(=O)N(C)[C@H](C(=O)N[C@H]1Cc2nc(cs2)-c2ccc3c(c2)c(c(-c2cccnc2[C@H](C)OC)n3CC)CC(C)(C)COC(=O)[C@@H]2CCCN(N2)C1=O)C(C)C (atropisomer, axis not shown) [Example A546] | < 0.01 | 100 to 1000 | 10 to 100 | 1000 to 10000 | 1000 to 10000 | 100 to 1000 | 1000 to 10000 | 100 to 1000 | 100 to 1000 | 100 to 1000 | 100 to 1000 | 100 to 1000 | –
CCn1c(-c2cccnc2[C@H](C)OC)c2c3cc(ccc31)-c1cccc(c1)C[C@H](NC(=O)[C@H](C(C)C)N1CC[C@@]3(CCN(C(=O)C#C[C@H]4COCCN4C)C3)C1=O)C(=O)N1CCC[C@H](N1)C(=O)OCC(C)(C)C2 (atropisomer, axis not shown) [Example A551] | – | < 10 | 100 to 1000 | 1000 to 10000 | 1000 to 10000 | 1000 to 10000 | 1000 to 10000 | 100 to 1000 | < 10 | 1000 to 10000 | 1000 to 10000 | 1000 to 10000 | < 0.01
CCn1c(-c2cccnc2[C@H](C)OC)c2c3cc(ccc31)-c1cccc(c1)C[C@H](NC(=O)[C@H](C(C)C)N1CO[C@@]3(CCN(C(=O)/C=C/CN(C)C)C3)C1=O)C(=O)N1CCC[C@H](N1)C(=O)OCC(C)(C)C2 (atropisomer, axis not shown) [Example A558] | 0.01 to 0.1 | 10 to 100 | 100 to 1000 | 100 to 1000 | 1000 to 10000 | 1000 to 10000 | 100 to 1000 | 100 to 1000 | 10 to 100 | 1000 to 10000 | 1000 to 10000 | 100 to 1000 | –
CO[C@@H](COC1CN(C(=O)C#CC(C)(C)N(C)C)C1)C(=O)N[C@H]1Cc2coc(n2)-c2ccc3c(c2)c(c(-c2cccnc2[C@H](C)OC)n3CC(F)(F)F)CC(C)(C)COC(=O)[C@@H]2CCCN(N2)C1=O (atropisomer, axis not shown) [Example A579] | < 0.01 | < 10 | 1000 to 10000 | 1000 to 10000 | > 10000 | 1000 to 10000 | 1000 to 10000 | 1000 to 10000 | < 10 | > 10000 | > 10000 | 1000 to 10000 | –
C=CC(=O)N1CCO[C@H]2CCN(C(=O)N(C)[C@H](C(=O)N[C@H]3Cc4nc(cs4)-c4ccc5c(c4)c(c(-c4cccnc4[C@H](C)OC)n5CC)CC(C)(C)COC(=O)[C@@H]4CCCN(N4)C3=O)C(C)C)C[C@H]21 (atropisomer, axis not shown) [Example A580] | 0.01 to 0.1 | 10 to 100 | 100 to 1000 | 100 to 1000 | 1000 to 10000 | 100 to 1000 | 100 to 1000 | 10 to 100 | 10 to 100 | 100 to 1000 | 10 to 100 | 100 to 1000 | –
C=CC(=O)NCCN1CCN(C(=O)N(C)[C@H](C(=O)N[C@H]2Cc3nc(cs3)-c3ccc4c(c3)c(c(-c3cccnc3[C@H](C)OC)n4CC)CC(C)(C)COC(=O)[C@@H]3CCCN(N3)C2=O)C(C)C)CC1 (atropisomer, axis not shown) [Example A582] | 0.01 to 0.1 | 100 to 1000 | 100 to 1000 | 100 to 1000 | 1000 to 10000 | 100 to 1000 | 100 to 1000 | 10 to 100 | 10 to 100 | 100 to 1000 | 10 to 100 | 100 to 1000 | –
CCn1c(-c2cccnc2[C@H](C)OC)c2c3cc(ccc31)-c1cccc(c1)C[C@H](NC(=O)[C@@H](CO[C@@H]1CCN(C(=O)C#CC(C)(C)N(C)C)C1)C(C)C)C(=O)N1CCC[C@H](N1)C(=O)OCC(C)(C)C2 (atropisomer, axis not shown) [Example A584] | < 0.01 | 10 to 100 | 1000 to 10000 | > 10000 | > 10000 | 1000 to 10000 | > 10000 | 1000 to 10000 | 10 to 100 | > 10000 | > 10000 | 1000 to 10000 | –
CCn1c(-c2cccnc2[C@H](C)OC)c2c3cc(ccc31)-c1cc(CF)cc(c1)C[C@H](NC(=O)[C@@H](COC1CN(C(=O)C#CC(C)(C)N(C)C)C1)C(C)C)C(=O)N1CCC[C@H](N1)C(=O)OCC(C)(C)C2 (atropisomer, axis not shown) [Example A587] | < 0.01 | 10 to 100 | > 10000 | > 10000 | > 10000 | > 10000 | > 10000 | > 10000 | 10 to 100 | > 10000 | > 10000 | > 10000 | –
CO[C@@H](C)c1ncccc1-c1c2c3cc(ccc3n1CC(F)(F)F)-c1cc(CF)cc(c1)C[C@H](NC(=O)[C@@H](COC1CN(C(=O)C#CC(C)(C)N(C)C)C1)C(C)C)C(=O)N1CCC[C@H](N1)C(=O)OCC(C)(C)C2 (atropisomer, axis not shown) [Example A589] | < 0.01 | 10 to 100 | 1000 to 10000 | > 10000 | > 10000 | > 10000 | 1000 to 10000 | 1000 to 10000 | 10 to 100 | > 10000 | > 10000 | 1000 to 10000 | –
